Patent publication US8088892B2, “Inhibitors of proteins from the Rho-GEF family” (Centre National de la Recherche Scientifique (C.N.R.S.), priority 2002, dated 2012)
“Also recorded” adds a separate entry of the source.

What was measured:
[1] = test system: TrioGEFD2-mediated RhoA activation; test: RhoA activity assay (Rhotekin RBD pull-down) in COS cells; format: cell-based; conditions: COS cells co-transfected, 48 hours
From the text: FIG. 5B represents the inhibitory effect of TRIPα on TrioGEFD2-mediated RhoA activation in intact cells using the RhoA activity assay, COS cells were transfected with GFP-TRIPα (left line), TrioGEFD2 (middle line) or both (right line). Cell lysates were subjected to GST-pulldown using the recombinant RBD (RhoA binding domain) fragment of the RhoA-specific effector Rhotekin. The presence of the GTP-bound form of RhoA and of the total RhoA protein was detected using a monoclonal anti-RhoA antibody and is represented in the upper two panels. GFP-TRIPα and TrioGEFD2 expression in the cell lysates is shown in the lower two panels.
Quantification of the RhoA activity assay is shown in the right part of the figure. The y-axis represents the ratio between active RhoA and total RhoA, in arbitrary units.
The Inventors then wanted to assess the inhibition by TRIPα of TrioGEFD2-mediated activation of endogenous RhoA in intact cells. To do so, the RhoA activity assay was used to detect the active GTP-bound form of RhoA (Ren et al., 1999). Briefly, COS cells were transfected as described in FIG. 5A with TrioGEFD2 in absence or in the presence of GFP-TRIAPα. 48 hours after transfection, cell lysates were subjected to GST-pull down using 20 μg of the recombinant RBD (RhoA binding domain) fragment of the RhoA-specific effector Rhotekin, that binds only to the activated GTP-bound form of RhoA.

[2] = test system: NGF-differentiated PC12 cells; test: Serum-induced neurite retraction; format: cell-based; conditions: 0 to 15 min after serum addition
Experimental: (§1) FIG. 6A represents histograms quantifying the effects of GFP-TRIPα or GFP on serum induced neurite retraction in NGF-differentiated PC12 cells. The X-axis represents the time after serum addition in minutes and the Y-axis represents the percentage of transfected cells with neurites.
Cells were transfected with GFP-TRIPα (white bars) or GFP (black bars) and differentiated with NGF (50 ng/ml). Serum was added and neurite retraction was followed for 15 minutes. The number of transfected cells with neurites was counted from at least 200 cells in 3 independent experiments.
Since Trio is an activator of RhoA and is expressed in PC12 cells (Estrach et al., 2002), it was analysed whether TRIPα could interfere with serum-induced neurite retraction in NGF-differentiated PC12 cells. […] After NGF treatment, cells were subjected to serum addition (DMEM medium supplemented with 10% HS and 5% fetal calf serum (FCS)) from 0 to 15 min (FIG. 6A). Cells were then fixed and permeabilised (Estrach et al., 2002) and observed as described in FIG. 5. Cells with neurites are defined as cells with neurites of at least twice the length of the cell body.

[3] = test system: ectopically expressed TrioGEFD2 in PC12 cells; test: NGF-induced neurite outgrowth in PC12 cells expressing TrioGEFD2; format: cell-based; conditions: PC12 co-transfected with TrioGEFD2, NGF 50 ng/ml 16 hours
Experimental: FIG. 5C represents the inhibition by TRIPα of the TrioGEFD2 effect in neuronal morphology. Immunofluorescence images of PC12 cells co-transfected with HA-TrioGEFD2 and either GFP-TRIPα (panels d, e, f) or GFP alone panels a, b, c) are shown. After 48 hours of expression, cells were treated for 16 hours with NGF (nerve growth factor) (50 ng/ml) and fixed. Expression of GFP and GFP-TRIPα was directly visualised (a, d) whereas overexpressed TrioGEFD2 was detected using the 12CA5 anti-HA antibody followed by AMCA-conjugated anti-mouse IgG (b, e). Filamentous actin was stained with Rhodamine-conjugated Phalloidin (c, f). Scale bar: 20 μm.
Cells were transfected with HA-tagged TrioGEFD2 (left side of the figure), myc-tagged KalGEFD2 (middle of the figure) or RhoAV14 (a constitutively active mutant of RhoA) (right side of the figure), and with either GFP-TRIPα (white bars), GFP-TRIPβ (hatched bars) or GFP alone (black bars). Cells were processed as described in FIG. 5C and the number of co-transfected cells with neurites was counted.
Numerous reports have established Rho-GTPases as key regulators of neuronal morphology (Luo, 2000). In neuronal cell lines, activation of RhoG, Rac and Cdc42 induces neurite outgrowth, while RhoA stimulation antagonises this effect by promoting neurite retraction (Katoh et al., 2000; Kozma et al., 1997; Yamaguchi et al., 2001). The PC12 cell line is a useful cellular model for studying Nerve Growth Factor (NGF)-induced neuronal differentiation. PC12-E2 cells were plated on collagen-coated 12 mm coverslips as described previously (Estrach et al., 2002) and transfected with the Lipofectamine Plus reagent (Life Technologies) according to the manufacturer's instructions. After transfection and differentiation with NGF (Promega, 50 ng/ml in DMEM medium supplemented with 0.5% horse serum (HS)) for 16 hours, PC12 cells were fixed and permeabilised as described (Estrach et al., 2002). […] Images were recorded using a Hamamatsu CCD camera. All transfections were repeated at least three times, and an average of 200 cells was counted each time. […]

[4] = test system: NGF-differentiated PC12 cells; test: LPA-induced neurite retraction; format: cell-based
Experimental: as §1, with “FIG. 6B” for “FIG. 6A”, “on LPA (lysophosphatidic acid)” for “on serum”, “after LPA” for “after serum”
Cells were transfected with GFP-TRIPα (white bars) or GFP (black bars) and differentiated with NGF (50 ng/ml). 10 μM LPA was added and neurite retraction was followed for 15 minutes. The number of transfected cells with neurites was counted from at least 200 cells in 3 independent experiments.
Among the serum components known to trigger neurite retraction and cell rounding in neuronal cells is lysophosphatidic acid (LPA) (Moolenaar et al., 1997). Thus, a similar neurite retraction assay was performed, except that, instead of the serum-containing medium, LPA (10 μM, Sigma) was added to TRIPα transfected and differentiated PC12 cells (FIG. 6B).

[5] = biological target: T1, TrioDH2PH2L2051E (Homo sapiens, UniProt O75962, L2110E); test: Binding specificity of aptamers in yeast; design: key: +++^1 and +^1 represent respectively a full and a partial (see FIG. 1) binding capacity; +++^1 and +^1 represent respectively a full and a partial (see FIG. 1) binding capacity; −−^1 represents a lack of binding; conditions: RhoGEF TrioDH2PH2L2051E
T1 construct: TrioGEFD2 (DH2PH2, amino acids 1848-2298); expressed in transfected cells; host or cells: yeast

AREGADGAICGYNLATLVMLGPSERVFCPLCEPCSSDIYELM [TRIPα, 42-amino acid peptide corresponding to the variable region of TRIAPα]
Inhibition of TrioGEFD2-mediated RhoA activation in intact cells [1]: able to inhibit TrioGEFD2-mediated RhoA activation
Effect on serum-induced neurite retraction [2]: prevents serum- and LPA-induced neurite retraction; also recorded: significantly inhibited this retraction
Reversion of TrioGEFD2 inhibition of NGF-induced neurite outgrowth [3]: only the TrioGEFD2 effect is reversed
Effect on LPA-induced neurite retraction ([4]; 10 μM LPA, 15 min): prevents serum- and LPA-induced neurite retraction; also recorded: also inhibited LPA-mediated neurite collapse
percentage of transfected cells with neurites after LPA addition ([4]; 15 min after 10 μM LPA): more than 37%

B1: TRIAPα: aptamer of 154 amino acids: variable region of 42 amino acids inserted into the thioredoxin protein; tested as GST fusion (protein)
chain: MSDKIIHLTDDSFDTDVLKADGAILVDFWAEWCGPAREGADGAICGYNLATLVMLGPSERVFCPLCEPCSSDIYELMGPCKMIAPILDEIADEYQGKLTVAKLNIDQNPGTAPKYGIRGIPTLLLFKNGEVASATKVGALSKGQLKEFLDANLA
Binding in yeast [5]: +++^1
